Experiments:
Type in all cases: physicochemical
[1] = Drug degradation in DMSO
[2] = Drug degradation in DMSO assessed as pyrimido[5,4-g]pteridine-4,6(3H,7H)-dione formation after 2 months; conditions: 1461 h
[3] = Drug degradation in DMSO assessed as oxidation after overnight incubation
[4] = Drug degradation in DMSO assessed as oxidation after two months; conditions: 1461 h
[5] = Drug degradation in DMSO assessed as 2,6-diamino-5-(2,6-diamino-4-oxopyrimidin-5(4H)-ylideneamino)pyrimidin-4(3H)-one formation at 10 mM incubated over 2 months by UV-Vis spectrophotometry; conditions: 1461 h, 10000 µM
[6] = Drug degradation in DMSO assessed as 2,6,8-triaminopyrimido[5,4-g]pteridin-4(3H)-one formation at 10 mM incubated over 2 months by UV-Vis spectrophotometry; conditions: 1461 h, 10000 µM
[7] = Drug degradation in DMSO after 7 days by NMR spectroscopy; conditions: 168 h
[8] = Drug degradation in DMSO assessed as 2,6-diamino-5-(2,6-diamino-4-oxopyrimidin-5(4H)-ylideneamino)pyrimidin-4(3H)-one formation after 1 day by NMR spectroscopy; conditions: 24 h
[9] = Drug degradation in DMSO assessed as ammonium cation formation after 2 days by NMR spectroscopy; conditions: 48 h
[10] = Drug degradation in DMSO assessed as 2,6,8-triaminopyrimido[5,4-g]pteridin-4(3H)-one after 87 days by NMR spectroscopy; conditions: 2088 h
[11] = Drug degradation in DMSO assessed as 2,6-diamino-5-(2,6-diamino-4-oxopyrimidin-5(4H)-ylideneamino)pyrimidin-4(3H)-one formation after 11 days by UV-Vis spectrophotometry; conditions: 264 h
[12] = Drug degradation in DMSO assessed as 2,6,8-triaminopyrimido[5,4-g]pteridin-4(3H)-one formation after 11 days by UV-Vis spectrophotometry; conditions: 264 h
[13] = Drug degradation in alkalised DMSO assessed as 2,6-diamino-5-(2,6-diamino-4-oxopyrimidin-5(4H)-ylideneamino)pyrimidin-4(3H)-one formation
[14] = Drug degradation in alkalised DMSO assessed as 2,6,8-triaminopyrimido[5,4-g]pteridin-4(3H)-one formation after 24 hrs
[15] = Drug degradation in acidified DMSO
[16] = Drug degradation in DMSO assessed as bis-alloxazine and pyrimido[4,5-g]pteridine-2,4,7,9(1H,3H,6H,8H)-tetraone formation
[17] = Drug degradation in DMSO assessed as pyrimido[5,4-g]pteridine-2,4,6,8-tetraamine formation by UV-Vis spectrophotometry
[18] = Drug degradation in DMSO assessed as pyrimido[4,5-g]pteridine-2,4,7,9-tetraamine formation by UV-Vis spectrophotometry
[19] = Drug degradation in DMSO by UV-Vis spectrophotometry
[20] = Drug degradation in DMSO after 2 months by UV-Vis spectrophotometry; conditions: 1461 h
[21] = Drug degradation in DMSO assessed as ammonium cation formation by NMR spectroscopy
[22] = Drug degradation in DMSO assessed as murexide by UV-Vis spectrophotometry
[23] = Drug degradation in DMSO assessed as oxidation
[24] = Drug degradation in DMSO assessed as methoxy group hydrolysis by NMR spectrophotometry
[25] = Drug degradation in DMSO assessed as 5-aminobarbiturate formation by UV-Vis spectrophotometry
[26] = Drug degradation in DMSO assessed as bis-alloxazine and pyrimido[4,5-g]pteridine-2,4,7,9(1H,3H,6H,8H)-tetraone formation after 3 months; conditions: 2191.5 h
[27] = Drug degradation in DMSO by NMR spectrophotometry

SMILES: Nc1cc(O)nc(N)n1
- Drug degradation [1]: Not Active

SMILES: Nc1ncnc(O)c1N
- Drug degradation [1]: Active
- Drug degradation [2]: Active

SMILES: Nc1nc(N)c(N)c(O)n1
- Drug degradation [1]: Active
- Drug degradation [3]: Active
- Drug degradation [4]: Active
- Drug degradation [5]: Active
- Drug degradation [6]: Active
- Drug degradation [7]: Active
- Drug degradation [8]: Active
- Drug degradation [9]: Active
- Drug degradation [10]: Active
- Drug degradation [11]: Active
- Drug degradation [12]: Active
- Drug degradation [13]: Active
- Drug degradation [14]: Active
- Drug degradation [15]: Active

SMILES: Nc1[nH]c(=O)[nH]c(=O)c1N
- Drug degradation [1]: Active
- Drug degradation [16]: Active

SMILES: Nc1nc(N)c(N)c(N)n1
- Drug degradation [1]: Active
- Drug degradation [3]: Active
- Drug degradation [17]: Active
- Drug degradation [18]: Active

SMILES: Nc1ncnc(N)c1N
- Drug degradation [19]: Not Active
- Drug degradation [20]: Not Active

SMILES: NC1C(=O)NC(=O)NC1=O
- Drug degradation [1]: Active
- Drug degradation [21]: Active
- Drug degradation [22]: Active

SMILES: COc1nc(N)nc(OC)c1N
- Drug degradation [1]: Active
- Drug degradation [23]: Active
- Drug degradation [24]: Active

SMILES: Nc1c(Cl)ncnc1Cl
- Drug degradation [23]: Not Active

SMILES: Nc1nc(S)[nH]c(=O)c1N
- Drug degradation [1]: Active
- Drug degradation [21]: Active
- Drug degradation [19]: Active

SMILES: Nc1c[nH]c(=O)[nH]c1=O
- Drug degradation [1]: Active
- Drug degradation [22]: Active
- Drug degradation [25]: Active

SMILES: Nc1c[nH]c(=O)nc1N
- Drug degradation [1]: Active
- Drug degradation [23]: Active
- Drug degradation [26]: Active

SMILES: Nc1nc(Cl)c(N)c(Cl)n1
- Drug degradation [1]: Active
- Drug degradation [19]: Active
- Drug degradation [23]: Active
- Drug degradation [27]: Active

Source: ChEMBL document CHEMBL2150899, “Compound instability in dimethyl sulphoxide, case studies with 5-aminopyrimidines and the implications for compound storage and screening” (Bioorg Med Chem Lett, 2012)
